In patent US12252701B2, “Chimeric antigen receptor T cell therapy” (KITE PHARMA, INC., priority 2020, dated 2025):
pIC50: −log10 of the molar value. Where two headings read alike, the source gives them in different places. Each block holds one molecule with its values, some of them ahead of it.

Tests used:
[1] = in vitro; details: human, CAR-T cells
[2] = cited from earlier work
[3] = tested on: CAR-T cells; experiment: CAR-T cell expansion assay (KIP-1 or CD3/CD28 stimulation); details: CD3/CD28
[4] = tested on: Nalm-6 luc; experiment: CAR-T cell killing assay (luciferase viability of tumor cells)
[5] = tested on: CD19 CAR T cells; experiment: CAR T cell cytokine production (Luminex) under CD19 K562, KIP-1 or CD2/3/28 stimulation; details: 72 h; for pIC50: Homo sapiens, T-cell
[6] = read-out: Suppression of cytokine production, GMCSF (IC50), CD3/CD28 stimulation, 72 h
[7] = read-out: Suppression of cytokine production, GMCSF (IC50), K562-CD19 stimulation, 72 h
[8] = read-out: Suppression of cytokine production, GzB (IC50), CD3/CD28 stimulation, 72 h
[9] = read-out: Suppression of cytokine production, GzB (IC50), K562-CD19 stimulation, 72 h
[10] = read-out: Suppression of cytokine production, GzB (IC50), KIP-1 stimulation, 72 h
[11] = read-out: Suppression of cytokine production, IFNg (IC50), CD3/CD28 stimulation, 72 h
[12] = read-out: Suppression of cytokine production, IFNg (IC50), KIP-1 stimulation, 72 h
[13] = read-out: Suppression of cytokine production, IL-2Ra (IC50), CD3/CD28 stimulation, 72 h
[14] = read-out: Suppression of cytokine production, IL-2Ra (IC50), K562-CD19 stimulation, 72 h
[15] = read-out: Suppression of cytokine production, IL-8 (IC50), CD3/CD28 stimulation, 72 h
[16] = read-out: Suppression of cytokine production, IL-8 (IC50), K562-CD19 stimulation, 72 h
[17] = read-out: Suppression of cytokine production, IL-10 (IC50), CD3/CD28 stimulation, 72 h
[18] = read-out: Suppression of cytokine production, MIG (IC50), CD3/CD28 stimulation, 72 h
[19] = read-out: Suppression of cytokine production, MIP-1a (IC50), CD3/CD28 stimulation, 72 h
[20] = read-out: Suppression of cytokine production, MIP-1a (IC50), K562-CD19 stimulation, 72 h
[21] = read-out: Suppression of cytokine production, MIP-1a (IC50), KIP-1 stimulation, 72 h
[22] = read-out: Suppression of cytokine production, MIP-1b (IC50), CD3/CD28 stimulation, 72 h
[23] = read-out: Suppression of cytokine production, MIP-1b (IC50), K562-CD19 stimulation, 72 h
[24] = read-out: Suppression of cytokine production, MIP-1b (IC50), KIP-1 stimulation, 72 h
[25] = read-out: Suppression of cytokine production, Perforin (IC50), CD3/CD28 stimulation, 72 h
[26] = read-out: Suppression of cytokine production, Perforin (IC50), K562-CD19 stimulation, 72 h
[27] = read-out: Suppression of cytokine production, Perforin (IC50), KIP-1 stimulation, 72 h

SMILES: C[C@@H]1C[C@H]2[C@@H]3CCC4=CC(=O)C=C[C@]4(C)[C@@]3(F)[C@@H](O)C[C@]2(C)[C@@]1(O)C(=O)CO [dexamethasone]
viability at 0 day, 50 nM [1]: 75% | viability at 0 day, 100 nM [1]: 75% | viability at 4 day, 50 nM [1]: 65.9% | viability at 4 day, 100 nM [1]: 52.8% | viability at 8 day, 50 nM [1]: 53.8% | viability at 8 day, 100 nM [1]: 56.6% | viability at 12 day, 50 nM [1]: 67.8% | viability at 12 day, 100 nM [1]: 56.5% | Cmax ([2]; human, in vivo): 115 ng/mL | Protein binding ([2]; plasma protein binding, reported): 77% | % viability ([3]; dose 50 nM, day 4): 45.9% | % viability ([3]; dose 50 nM, day 8): 44.4% | % viability ([3]; dose 50 nM, day 12): 74.7% | % viability ([3]; dose 100 nM, day 4): 53.4% | % viability ([3]; dose 100 nM, day 8): 51.3% | % viability ([3]; dose 100 nM, day 12): 66.3% | Mean tumor cell death (%) ([4]; E:T ratio 1:1, dose 10 nM): 98.09% | Mean tumor cell death (%) ([4]; E:T ratio 1:1, dose 100 nM): 92.30% | Mean tumor cell death (%) ([4]; E:T ratio 1:1, dose 250 nM): 97.15% | Mean tumor cell death (%) ([4]; E:T ratio 1:3, dose 10 nM): 34.66% | Mean tumor cell death (%) ([4]; E:T ratio 1:3, dose 100 nM): 19.94% | Mean tumor cell death (%) ([4]; E:T ratio 1:3, dose 250 nM): 20.38% | Mean tumor cell death (%) ([4]; E:T ratio 1:9, dose 10 nM): 7.08% | Mean tumor cell death (%) ([4]; E:T ratio 1:9, dose 100 nM): 3.02% | Mean tumor cell death (%) ([4]; E:T ratio 1:9, dose 250 nM): 2.48% | Suppression of cytokine production, MCP-1, % inh. ([5]; CD3/CD28 stimulation): >80% inh. | Suppression of cytokine production, TNFa, % inh. ([5]; CD3/CD28 stimulation): >50% inh. | pIC50 [5, 6]: < 5.00 | pIC50 [5, 7]: < 5.00 | pIC50 [5, 8]: < 5.00 | pIC50 [5, 9]: < 5.00 | pIC50 [5, 10]: < 5.00 | pIC50 [5, 11]: < 5.00 | pIC50 ([5]; read-out: Suppression of cytokine production, IFNg (IC50), K562-CD19 stimulation, 72 h): < 5.00 | pIC50 [5, 12]: < 5.00 | pIC50 [5, 13]: < 5.00 | pIC50 [5, 14]: < 5.00 | pIC50 [5, 15]: < 5.00 | pIC50 [5, 16]: < 5.00 | pIC50 [5, 17]: < 5.00 | pIC50 [5, 18]: < 5.00 | pIC50 [5, 19]: < 5.00 | pIC50 [5, 20]: < 5.00 | pIC50 [5, 21]: < 5.00 | pIC50 [5, 22]: < 5.00 | pIC50 [5, 23]: < 5.00 | pIC50 [5, 24]: < 5.00 | pIC50 [5, 25]: < 5.00 | pIC50 [5, 26]: < 5.00 | pIC50 [5, 27]: < 5.00 | Suppression of cytokine production, IL-6, % inh. ([5]; KIP-1 stimulation): 66% inh. | Suppression of cytokine production, IL-10, % inh. ([5]; KIP-1 stimulation): 50% inh. | Suppression of cytokine production, MCP-1, % inh. ([5]; KIP-1 stimulation): 66% inh. | Suppression of cytokine production, MIG, % inh. ([5]; KIP-1 stimulation): 50% inh. | Suppression of cytokine production, TNFa, % inh. ([5]; KIP-1 stimulation): 75% inh.

pIC50 [5, 6]: > 7.00 | pIC50 [5, 7]: 6.42 | pIC50 ([5]; read-out: Suppression of cytokine production, GMCSF (IC50), KIP-1 stimulation, 72 h): 6.56 | pIC50 [5, 8]: 5.56 | pIC50 [5, 9]: < 5.00 | pIC50 [5, 10]: < 5.00 | pIC50 [5, 11]: < 5.00 | pIC50 [5, 12]: < 5.00 | pIC50 [5, 13]: 6.84 | pIC50 [5, 14]: > 7.00 | pIC50 ([5]; read-out: Suppression of cytokine production, IL-2Ra (IC50), KIP-1 stimulation, 72 h): > 7.00 | pIC50 ([5]; read-out: Suppression of cytokine production, IL-6 (IC50), CD3/CD28 stimulation, 72 h): > 7.00 | pIC50 ([5]; read-out: Suppression of cytokine production, IL-6 (IC50), KIP-1 stimulation, 72 h): 5.70 | pIC50 [5, 15]: > 7.00 | pIC50 [5, 16]: > 7.00 | pIC50 ([5]; read-out: Suppression of cytokine production, IL-8 (IC50), KIP-1 stimulation, 72 h): > 7.00 | pIC50 [5, 17]: > 7.00 | pIC50 ([5]; read-out: Suppression of cytokine production, IL-10 (IC50), K562-CD19 stimulation, 72 h): > 7.00 | pIC50 ([5]; read-out: Suppression of cytokine production, IL-10 (IC50), KIP-1 stimulation, 72 h): > 7.00 | pIC50 ([5]; read-out: Suppression of cytokine production, MCP-1 (IC50), CD3/CD28 stimulation, 72 h): > 7.00 | pIC50 ([5]; read-out: Suppression of cytokine production, MCP-1 (IC50), K562-CD19 stimulation, 72 h): > 7.00 | pIC50 ([5]; read-out: Suppression of cytokine production, MCP-1 (IC50), KIP-1 stimulation, 72 h): 5.59 | pIC50 [5, 18]: 6.26 | pIC50 ([5]; read-out: Suppression of cytokine production, MIG (IC50), K562-CD19 stimulation, 72 h): > 7.00 | pIC50 ([5]; read-out: Suppression of cytokine production, MIG (IC50), KIP-1 stimulation, 72 h): > 7.00 | pIC50 [5, 19]: 6.44 | pIC50 [5, 20]: 6.78 | pIC50 [5, 21]: 5.85 | pIC50 [5, 22]: > 7.00 | pIC50 [5, 23]: 6.83 | pIC50 [5, 24]: 6.26 | pIC50 [5, 25]: 5.80 | pIC50 [5, 26]: > 7.00 | pIC50 [5, 27]: 6.37 | pIC50 ([5]; read-out: Suppression of cytokine production, TNFa (IC50), CD3/CD28 stimulation, 72 h): > 7.00 | pIC50 ([5]; read-out: Suppression of cytokine production, TNFa (IC50), K562-CD19 stimulation, 72 h): > 7.00 | pIC50 ([5]; read-out: Suppression of cytokine production, TNFa (IC50), KIP-1 stimulation, 72 h): 6.49 | Suppression of cytokine production, IFNg (IC50) ([5]; K562-CD19 stimulation): Suppress | Suppression of cytokine production, IL-6 (IC50) ([5]; K562-CD19 stimulation): Suppress
SMILES: N#CCC1(n2cc(-c3ncnc4[nH]ccc34)cn2)CN(C2CCN(C(=O)c3ccnc(C(F)(F)F)c3F)CC2)C1 [itacitinib]
